Common to all, as to assay: NCI anticancer screen, dose series, 48 h
The subject of experiment [1] is MCF7.
The test system of experiment [2] is HL-60.
The subject of experiment [3] is OVCAR-3.
Experiment [4] concerns SF-295.
Experiment [5] has as its system CAKI-1.
Experiment [6] has as its system DU-145.
Experiment [7] deals with UO-31.
The test system of experiment [8] is A498.
Experiment [9] concerns A549.
In experiment [10] the test system is UACC-62.
Experiment [11] relates to SN12C.
Experiment [12] has as its system OVCAR-5.
Experiment [13] deals with RPMI-8226.
For experiment [14], the system named is COLO 205.
Experiment [15] relates to U-251.
In experiment [16] the test system is HCC 2998.
For experiment [17], the system named is K562.
Experiment [18] concerns HT-29.
The subject of experiment [19] is PC-3.

Structures are written as SMILES.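 These data come from cells grown in 96-well plates and exposed to compound for 48 hours at five concentrations. At the GI50, growth is halved.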 Active and inactive are the calls of the source. Cut-off read from the data, not from the text of the source: active = GI50 up to about 1.1 µM and inactive = higher.

On to `O=C1NC(c2cccc(OCc3ccccc3)c2)Nc2ccccc21` (stereo not drawn), for which the GI50 was 0.034 µM (active) in experiment [1]; < 0.0184 µM (active) in experiment [2]; 0.1 µM (active) in [3]; 0.114 µM (active) in experiment [4]; 0.628 µM (active) in [5]; 0.172 µM (active) in experiment [6]. Also, the GI50 in experiment [7] was 4.55 µM (inactive); in experiment [8], 0.259 µM (active); in experiment [9] it was 0.13 µM (active); in experiment [10], 0.495 µM (active); in experiment [11], 0.119 µM (active); in experiment [12], 0.374 µM (active). In addition, the GI50 was 0.0416 µM (active) in experiment [13]; 0.191 µM (active) in experiment [14]; 0.232 µM (active) in experiment [15]; 0.243 µM (active) in experiment [16]; 0.0189 µM (active) in [17]; 0.12 µM (active) in experiment [18]. For the same molecule, in experiment [19], the GI50 was 0.162 µM (active).

On to `O=c1ccn(C2OC(CN(O)CCC3C(CO)OC(n4ccc(=O)[nH]c4=O)C3O)C(O)C2O)c(=O)[nH]1` (stereo not drawn), for which the GI50 in experiment [1], in [2], in experiment [3], in experiment [4], in experiment [5] and in experiment [6] was > 100 µM (inactive) each time. The GI50 in experiment [7], in experiment [8], in experiment [9], in experiment [10], in experiment [11] and in experiment [12] was > 100 µM (inactive) in each case. Moreover, the GI50 in [13], in experiment [14], in experiment [15], in experiment [16], in [17] and in [18] was > 100 µM (inactive) each time. In addition, the GI50 in [19] was > 100 µM (inactive).

On to `COc1ccc(/N=C(Nc2ccc(OC)cc2)/C(=N/c2ccc(OC)cc2)Nc2ccc(OC)cc2)cc1`, for which the GI50 was > 100 µM (inactive) in experiment [1]; 14.1 µM (inactive) in experiment [2]; > 100 µM (inactive) in experiment [3]; > 100 µM (inactive) in [4]; > 100 µM (inactive) in experiment [5]; > 100 µM (inactive) in experiment [6]. Further, the GI50 was 5.25 µM (inactive) in experiment [7]; > 100 µM (inactive) in [8]; 96.2 µM (inactive) in experiment [9]; > 100 µM (inactive) in experiment [10]; > 100 µM (inactive) in experiment [11]; > 100 µM (inactive) in [12]. The GI50 in [13] is 5.66 µM (inactive); in experiment [14], > 100 µM (inactive); in experiment [15], > 100 µM (inactive); in experiment [16], > 100 µM (inactive); in experiment [17], 15 µM (inactive); in experiment [18], > 100 µM (inactive). The GI50 in experiment [19] is 3.9 µM (inactive).

Consider `CC(=O)C1(O)CCC2(O)C3(O)CC=C4CC(O)CCC4(C)C3CC(OC(=O)c3ccc(O)cc3)C12C` (stereo not drawn), for which the GI50 in [1], in experiment [2], in experiment [3], in experiment [4], in experiment [5] and in experiment [6] was > 100 µM (inactive) in each case. Further, the GI50 in experiment [7] was > 100 µM (inactive); in [8] it was > 100 µM (inactive); in [9], > 100 µM (inactive); in experiment [10], 75.2 µM (inactive); in experiment [11] it was > 100 µM (inactive); in [12], > 100 µM (inactive). Also, the GI50 in [13] was > 100 µM (inactive); in experiment [14], > 100 µM (inactive); in [15], > 100 µM (inactive); in experiment [16], > 100 µM (inactive); in experiment [17] it was 27 µM (inactive); in [18], > 100 µM (inactive). Besides, the GI50 in [19] was > 100 µM (inactive).

Take `COCOc1cc(OCOC)cc(C(=O)Oc2ccccc2)c1`: the GI50 in experiment [1], in [2], in experiment [3], in experiment [4], in experiment [5] and in [6] was > 100 µM (inactive) each time. The GI50 in [7] is 78.5 µM (inactive); in [8], > 100 µM (inactive); in experiment [9], > 100 µM (inactive); in experiment [10], > 100 µM (inactive); in experiment [11], > 100 µM (inactive); in experiment [12] it was > 100 µM (inactive). Besides, the GI50 in [13] was 61.7 µM (inactive); in experiment [14], > 100 µM (inactive); in [15] it was > 100 µM (inactive); in experiment [16] it was > 100 µM (inactive); in experiment [17], > 100 µM (inactive); in experiment [18], > 100 µM (inactive). The GI50 in [19] is 93.8 µM (inactive).

Regarding `C=CCOC(=O)C1C2OC3(C(C(=O)OC)=C2C(=O)OC)c2ccccc2CCC13` (stereo not drawn), the GI50 in [1], in experiment [2], in experiment [3], in experiment [4], in [5] and in [6] was > 10 µM (inactive) in each case. Besides, the GI50 in [7], in experiment [8], in experiment [9], in [10], in experiment [11] and in [12] was > 10 µM (inactive) in each case. Further, the GI50 in [13], in experiment [14], in experiment [15], in [16], in experiment [17] and in experiment [18] was > 10 µM (inactive) in each case. Besides, in experiment [19], the GI50 is > 10 µM (inactive).

Turning to `C=C(C)[C@@H]1CC[C@]2(C)CC[C@]3(C)[C@H](CC[C@@H]4[C@@]5(C)CC[C@H](OC(=O)c6ccccc6)C(C)(C)[C@@H]5CC[C@]43C)[C@@H]12`, the GI50 in [1], in [2], in experiment [3], in experiment [4], in [5] and in experiment [6] was > 100 µM (inactive) throughout. Also, the GI50 in [7], in experiment [8], in experiment [9], in experiment [10], in experiment [11] and in experiment [12] was > 100 µM (inactive) in each case. The GI50 in experiment [13], in experiment [14], in [15], in experiment [16], in [17] and in experiment [18] was > 100 µM (inactive) in each case. Besides, the GI50 in experiment [19] is > 100 µM (inactive).

For the origin of these results see ChEMBL document CHEMBL1201862, “PubChem BioAssay data set” (2004).
